Publication PMC7019114, “Bioactivity, Compounds Isolated, Chemical Qualitative, and Quantitative Analysis of Cymbaria daurica Extracts” (Frontiers in Pharmacology, 2020)
Each block holds one compound with its values, some of them ahead of it.

What was measured:
[1] = system: streptozotocin-induced diabetic rats; set-up: method as in Huang et al., 2010; details: intravenous injection, ref Huang et al., 2010; cited from earlier work
[2] = system: intestinal inflammation model; set-up: method as in Carrillo-Ocampo et al., 2013; details: ref Carrillo-Ocampo et al., 2013; cited from earlier work
[3] = system: tyrosine phosphatase SHP-1; set-up: method as in Pesce et al., 2015; details: U937 cell line; ref Pesce et al., 2015; cited from earlier work
[4] = system: LPS-induced NO production in RAW 264.7 cell; assay: Nitric oxide assay (Griess test), LPS-induced NO production; format: cell-based; details: Mus musculus; RAW264.7 cell, LPS 1 μg/mL, positive control, n = 5; read-out: IC50 of inhibitory activity on LPS-induced NO production
Protocol: RAW 264.7 mouse macrophages were cultured in high glucose DMEM supplemented with 10% FBS and a mixture of penicillin and streptomycin. The cells were maintained in a humidified incubator with an atmosphere of 5% CO2 at 37°C. RAW 264.7 cells were plated at a density of 5 × 10^5 cells/mL in 24-well plates, cultured for 12 h, and then treated with LPS (1 μg/mL) and incubated for 4 h. Thereafter, the cells were treated with different concentrations (25, 50, 100, 200, and 400 μg/mL) of C. daurica extracts (water, n-butanol, ethyl acetate, and petroleum-ether extracts) and incubated for an additional 20 h. […] The amount of NO in the medium was detected using the Griess test. One hundred microliters of each supernatant were mixed with equal volume of Griess reagent (1% sulfanilamide in 5% phosphoric acid and 0.1% naphthylethylenediamine dihydrochloride in water). The absorbance of the mixture at 550 nm and concentration of nitrite were determined using serially diluted sodium nitrite as the standard ([Qiao et al., 2005]).

SMILES: OC[C@H]1O[C@@H](O[C@@H]2OC=C[C@H]3[C@H](O)[C@@H]4O[C@]4(CO)[C@@H]23)[C@H](O)[C@@H](O)[C@@H]1O [Compound 1, catalpol]
anti-hyperglycemic activity [1]: exhibited anti-hyperglycemic activity in a dose-dependent manner

SMILES: C[C@@H]1O[C@@H](O[C@@H]2[C@@H](O)[C@H](OCCc3ccc(O)c(O)c3)O[C@H](CO)[C@H]2OC(=O)/C=C/c2ccc(O)c(O)c2)[C@H](O)[C@H](O)[C@H]1O [Compound 7, verbascoside]
presence of pro-inflammatory molecules [2]: decreased the presence of pro-inflammatory molecules
activity of tyrosine phosphatase SHP-1 [3]: increasing the activity of tyrosine phosphatase SHP-1

IC50 [4]: 60 ± 0.8 µM
SMILES: COc1ccc2c(c1)c(CC(=O)O)c(C)n2C(=O)c1ccc(Cl)cc1 [Indomethacin]
